Patent US11180474B2 (BRISTOL-MYERS SQUIBB COMPANY, priority 2016, dated 2021)

Target: T1, human TLR8 (Homo sapiens, UniProt Q9NR97)
T1 construct: host or cells: HEK-Blue cells
T1 sequence (Q9NR97 27-1041): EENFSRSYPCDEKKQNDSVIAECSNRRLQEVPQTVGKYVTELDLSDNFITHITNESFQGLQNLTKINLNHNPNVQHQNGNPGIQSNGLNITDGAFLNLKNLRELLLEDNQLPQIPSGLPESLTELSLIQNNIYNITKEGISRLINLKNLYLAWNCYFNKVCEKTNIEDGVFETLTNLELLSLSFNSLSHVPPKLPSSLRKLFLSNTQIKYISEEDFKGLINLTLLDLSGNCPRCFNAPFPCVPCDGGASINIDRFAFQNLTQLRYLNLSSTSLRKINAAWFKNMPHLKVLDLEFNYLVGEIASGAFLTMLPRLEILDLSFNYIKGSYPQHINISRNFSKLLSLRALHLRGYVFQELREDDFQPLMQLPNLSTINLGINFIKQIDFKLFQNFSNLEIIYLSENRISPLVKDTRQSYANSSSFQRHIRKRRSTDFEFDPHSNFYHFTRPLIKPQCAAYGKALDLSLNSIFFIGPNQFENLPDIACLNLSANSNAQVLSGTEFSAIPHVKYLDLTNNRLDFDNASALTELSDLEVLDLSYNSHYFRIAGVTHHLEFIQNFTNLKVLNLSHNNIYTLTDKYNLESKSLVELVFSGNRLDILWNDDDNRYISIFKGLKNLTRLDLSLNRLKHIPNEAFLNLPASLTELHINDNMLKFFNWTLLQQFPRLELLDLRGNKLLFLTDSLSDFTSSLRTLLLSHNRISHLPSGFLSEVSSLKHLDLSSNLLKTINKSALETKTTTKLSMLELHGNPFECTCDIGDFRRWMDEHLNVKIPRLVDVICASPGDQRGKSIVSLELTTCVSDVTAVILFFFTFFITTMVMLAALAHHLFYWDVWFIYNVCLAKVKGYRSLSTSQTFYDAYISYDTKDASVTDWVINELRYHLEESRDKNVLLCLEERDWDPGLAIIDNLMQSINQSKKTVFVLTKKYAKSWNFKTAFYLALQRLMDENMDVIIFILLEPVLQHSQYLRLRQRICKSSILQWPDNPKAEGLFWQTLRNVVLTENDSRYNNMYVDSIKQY
Test: TLR8 inhibition reporter assay (HEK-Blue cells, SEAP reporter, R848 stimulation)
Assay type: cell-based
Conditions: HEK-Blue cells overexpressing human TLR8, R848 15.9 μM
Outline: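 22 h, 37° C, 5% CO2 incubation; compounds 0.05 nM-50 μM final; TLR7 cells 15000/well, TLR8 20,000/well. Readout: SEAP via HEK-Blue Detection medium. % inhibition = signal reduction versus agonist + DMSO wells, referenced to known inhibitor.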

Structure (SMILES) | IC50
COc1ccc(-c2[nH]c3ccc(C4CCN(C(=O)CNCCC(C)O)CC4)cc3c2C(C)C)cc1OC (stereo not drawn) [Example 237, 1-(4-(2-(3,4-dimethoxyphenyl)-3-isopropyl-1H-indol-5-yl)piperidin-1-yl)-2-((3-hydroxybutyl)amino)ethan-1-one] | 0.022 µM
COc1ccc(-c2[nH]c3ccc(C4CCN(C(=O)CN5CCCN(C(C)=O)CC5)CC4)cc3c2C(C)C)cc1OC [Example 222, 2-(4-acetyl-1,4-diazepan-1-yl)-1-(4-(2-(3,4-dimethoxyphenyl)-3-isopropyl-1H-indol-5-yl)piperidin-1-yl)ethan-1-one] | 0.067 µM
COc1ccc(-c2[nH]c3ccc(C4CCN(C(=O)CN5CCCN(C)CC5)CC4)cc3c2C(C)C)cc1OC [Example 239, 1-(4-(2-(3,4-dimethoxyphenyl)-3-isopropyl-1H-indol-5-yl)piperidin-1-yl)-2-(4-methyl-1,4-diazepan-1-yl)ethan-1-one] | 0.017 µM
COc1ccc(-c2[nH]c3ccc(C4CCN(C(=O)CNC[C@H](O)CO)CC4)cc3c2C(C)C)cc1OC [Example 235, (S)-2-((2,3-dihydroxypropyl)amino)-1-(4-(2-(3,4-dimethoxyphenyl)-3-isopropyl-1H-indol-5-yl)piperidin-1-yl)ethan-1-one] | 0.039 µM
COc1ccc(-c2[nH]c3ccc(C4CCN(C(=O)CNC[C@@H](F)C(C)(C)O)CC4)cc3c2C(C)C)cc1OC [Example 251, (R)-1-(4-(2-(3,4-dimethoxyphenyl)-3-isopropyl-1H-indol-5-yl)piperidin-1-yl)-2-((2-fluoro-3-hydroxy-3-methylbutyl)amino) ethan-1-one] | 0.75 µM
COc1ccc(-c2[nH]c3ccc(C4CCN(C(=O)CNCCOCCO)CC4)cc3c2C(C)C)cc1OC [Example 230, 1-(4-(2-(3,4-dimethoxyphenyl)-3-isopropyl-1H-indol-5-yl)piperidin-1-yl)-2-((2-(2-hydroxyethoxy)ethyl)amino)ethan-1-one] | 0.018 µM
COc1ccc(-c2[nH]c3ccc(C4CCN(C(=O)CN5CCOCC5)CC4)cc3c2C(C)C)cc1OC [Example 223, 1-(4-(2-(3,4-dimethoxyphenyl)-3-isopropyl-1H-indol-5-yl)piperidin-1-yl)-2-morpholinoethan-1-one] | 0.098 µM
CCN(CC)C(=O)C1CCCN(CC(=O)N2CCC(c3ccc4[nH]c(-c5ccc(OC)c(OC)c5)c(C(C)C)c4c3)CC2)C1 (stereo not drawn) [Example 248, 1-(2-(4-(2-(3,4-dimethoxyphenyl)-3-isopropyl-1H-indol-5-yl)piperidin-1-yl)-2-oxoethyl)-N,N-diethylpiperidine-3-carboxamide] | 0.022 µM
COc1ccc(-c2[nH]c3ccc(C4CCN(C(=O)CN5CCCC(CO)C5)CC4)cc3c2C(C)C)cc1OC (stereo not drawn) [Example 226, 1-(4-(2-(3,4-dimethoxyphenyl)-3-isopropyl-1H-indol-5-yl)piperidin-1-yl)-2-(3-(hydroxymethyl)piperidin-1-yl)ethan-1-one] | 0.017 µM
COc1ccc(-c2[nH]c3ccc(C4CCN(C(=O)C[C@H](C)N)CC4)cc3c2C(C)C)cc1OC [Example 253, (S)-3-amino-1-(4-(2-(3,4-dimethoxyphenyl)-3-isopropyl-1H-indol-5-yl)piperidin-1-yl)butan-1-one] | 0.019 µM

Continued, values first:

IC50 | Structure (SMILES)
0.038 µM | COc1ccc(-c2[nH]c3ccc(C4CCN(C(=O)CN5CCC[C@@H](C(=O)N6CCN(CCN7CCCC7)CC6)C5)CC4)cc3c2C(C)C)cc1OC [Example 307, (R)-1-(4-(2-(3,4-dimethoxyphenyl)-3-isopropyl-1H-indol-5-yl)piperidin-1-yl)-2-(3-(4-(2-(pyrrolidin-1-yl)ethyl)piperazine-1-carbonyl)piperidin-1-yl)ethan-1-one]
0.026 µM | COc1ccc(-c2[nH]c3ccc(C4CCN(C(=O)CN5CCC[C@@H](C(=O)N6CCC(N(C)C)CC6)C5)CC4)cc3c2C(C)C)cc1OC [Example 305, (R)-1-(4-(2-(3,4-dimethoxyphenyl)-3-isopropyl-1H-indol-5-yl)piperidin-1-yl)-2-(3-(4-(dimethylamino)piperidine-1-carbonyl)piperidin-1-yl)ethan-1-one]
0.017 µM | COc1ccc(-c2[nH]c3ccc(C4CCN(C(=O)CN5CCC[C@H](C(=O)N6CCN(C(C)C)CC6)C5)CC4)cc3c2C(C)C)cc1OC [Example 286, (S)-1-(4-(2-(3,4-dimethoxyphenyl)-3-isopropyl-1H-indol-5-yl)piperidin-1-yl)-2-(3-(4-isopropylpiperazine-1-carbonyl)piperidin-1-yl)ethan-1-one]
0.015 µM | COc1ccc(-c2[nH]c3ccc(C4CCN(Cc5cnc[nH]5)CC4)cc3c2C(C)C)cc1OC [Example 268, 5-(1-((1H-imidazol-5-yl)methyl)piperidin-4-yl)-2-(3,4-dimethoxyphenyl)-3-isopropyl-1H-indole]
0.073 µM | COc1ccc(-c2[nH]c3ccc(C4CCN(C(=O)CN5CCC[C@@H](C(=O)N6CCC(CCO)CC6)C5)CC4)cc3c2C(C)C)cc1OC [Example 306, (R)-1-(4-(2-(3,4-dimethoxyphenyl)-3-isopropyl-1H-indol-5-yl)piperidin-1-yl)-2-(3-(4-(2-hydroxyethyl)piperidine-1-carbonyl)piperidin-1-yl)ethan-1-one]
0.022 µM | COc1ccc(-c2[nH]c3ccc(C4CCN(C(=O)CN5CCC[C@H](C(=O)NC6(CO)CCCC6)C5)CC4)cc3c2C(C)C)cc1OC [Example 296, (S)-1-(2-(4-(2-(3,4-dimethoxyphenyl)-3-isopropyl-1H-indol-5-yl)piperidin-1-yl)-2-oxoethyl)-N-(1-(hydroxymethyl)cyclopentyl)piperidine-3-carboxamide]
0.027 µM | COc1ccc(-c2[nH]c3ccc(C4CCN(CC(=O)NCCO)CC4)cc3c2C(C)C)cc1OC [Example 276, 2-(4-(2-(3,4-dimethoxyphenyl)-3-isopropyl-1H-indol-5-yl)piperidin-1-yl)-N-(2-hydroxyethyl) acetamide]
0.035 µM | CNCC(=O)N1CCC(c2ccc3[nH]c(-c4ccc(OC)c(OC)c4)c(C(C)C)c3c2)CC1 [Example 256, 1-(4-(2-(3,4-dimethoxyphenyl)-3-isopropyl-1H-indol-5-yl)piperidin-1-yl)-2-(methylamino)ethan-1-one]
0.128 µM | COc1ccc(-c2[nH]c3ccc(C4CCN(C(=O)CN5CCC[C@H](C(=O)N6CC7CNCC7C6)C5)CC4)cc3c2C(C)C)cc1OC (stereo partly drawn) [Example 299, 1-(4-(2-(3,4-dimethoxyphenyl)-3-isopropyl-1H-indol-5-yl)piperidin-1-yl)-2-((3 S)-3-(octahydropyrrolo[3,4-c]pyrrole-2-carbonyl)piperidin-1-yl)ethan-1-one]
0.554 µM | COc1ccc(-c2[nH]c3ccc(C4CCN(C(=O)CN5CCC[C@H](C(=O)N6CCN(Cc7ccc(Br)cc7)CC6)C5)CC4)cc3c2C(C)C)cc1OC [Example 294, (S)-2-(3-(4-(4-bromobenzyl)piperazine-1-carbonyl)piperidin-1-yl)-1-(4-(2-(3,4-dimethoxyphenyl)-3-isopropyl-1H-indol-5-yl)piperidin-1-yl)ethan-1-one]
0.018 µM | COc1ccc(-c2[nH]c3ccc(C4CCN(C(=O)CN5CCC[C@@H](C(=O)N6CCN(C(C)C)CC6)C5)CC4)cc3c2C(C)C)cc1OC [Example 302, (R)-1-(4-(2-(3,4-dimethoxyphenyl)-3-isopropyl-1H-indol-5-yl)piperidin-1-yl)-2-(3-(4-isopropylpiperazine-1-carbonyl)piperidin-1-yl)ethan-1-one]
0.029 µM | COc1ccc(-c2[nH]c3ccc(C4CCN(CC(=O)NC5CCN(C(C)C)CC5)CC4)cc3c2C(C)C)cc1OC [Example 273, 2-(4-(2-(3,4-dimethoxyphenyl)-3-isopropyl-1H-indol-5-yl)piperidin-1-yl)-N-(1-isopropylpiperidin-4-yl)acetamide]
0.228 µM | COc1ccc(-c2[nH]c3ccc(C4CCN(CC(=O)N5CCN(C)CC5)CC4)cc3c2C(C)C)cc1OC [Example 274, 2-(4-(2-(3,4-dimethoxyphenyl)-3-isopropyl-1H-indol-5-yl)piperidin-1-yl)-1-(4-methylpiperazin-1-yl) ethan-1-one]
0.019 µM | COc1ccc(-c2[nH]c3ccc(C4CCN(C(=O)CN5CCC[C@H](C(=O)NCC#N)C5)CC4)cc3c2C(C)C)cc1OC [Example 297, (S)—N-(cyanomethyl)-1-(2-(4-(2-(3,4-dimethoxyphenyl)-3-isopropyl-1H-indol-5-yl)piperidin-1-yl)-2-oxoethyl)piperidine-3-carboxamide]
